The values below come from patent US20040054194A1, “Method for producing 1-pyrrolines” (priority 2003, published 2004).

Like-named read-outs stand apart in the source and are kept apart here.

The nature of series [1]: logP determination by HPLC on a reversed-phase column (C 18), EEC Directive 79/831 Annex V.A8. The series is classed as physicochemical. Particulars: reversed-phase HPLC column (C 18), pH 2.3, HPLC. Here is the method: The logp values given in the tables and Preparation Examples above are determined in accordance with EEC Directive 79/831 Annex V .A8 by HPLC (High Performance Liquid Chromatography) on a reversed-phase column (C 18). Temperature: 43° C.
The determination is carried out in the acidic range at pH 2.3 using the mobile phases 0.1% aqueous phosphoric acid and acetonitrile; linear gradient from 10% acetonitrile to 90% acetonitrile.
Calibration is carried out using unbranched alkan-2-ones (of 3 to 16 carbon atoms) with known logp values (determination of the logp values by the retention times using linear interpolation between two successive alkanones).

[2] abbreviates: acidic range pH 2.3, amides of the formula (II), read-out: logP*.
[3] abbreviates: pH 2.3, read-out: log P (pH 2.3).
The mark [4] stands for this setting: acidic range pH 2.3, pyrrolines of the formula (I), read-out: logP*.

Consider `CC(=O)NC(CCC(=O)c1c(F)cccc1F)c1ccc(-c2ccc(OC(F)(F)F)cc2)cc1` (centres unmarked) [II-3], for which the chromatographic logP in series [1] (setting [2]) was 3.79.
In general, melting point refers to the temperature of the solid-liquid transition. Consider `O=C(c1c(F)cccc1F)C1CC1c1ccc(Br)cc1` (centres unmarked) [III-1, [2-(4-bromophenyl)cyclopropyl](2,6-difluoro-phenyl)methanone], for which the melting point was 64 to 65 °C. Also, the chromatographic logP in series [1] (acidic range pH 2.3, cyclopropanes of the formula (III), read-out: logP*) worked out at 4.22. Also, the chromatographic logP in series [1] (setting [3]) amounted to 4.24.
With `Fc1cccc(F)c1C1=NC(c2ccc(Cl)cc2)CC1` (centres unmarked) [Example I-2, 2-(4-chlorophenyl)-5-(2,6-difluorophenyl)-3,4-dihydro-2H-pyrrole], the chromatographic logP in series [1] (setting [4]) and in series [1] (setting [3]) was 2.59 each time.
The compound `Fc1cccc(F)c1C1=NC(c2ccc(Br)cc2)CC1` (centres unmarked) [Example I-1, 2-(4-bromophenyl)-5-(2,6-difluorophenyl)-3,4-dihydro-2H-pyrrole] had a melting point of 48 °C. Also, in series [1] (setting [4]), the chromatographic logP was 2.77. Moreover, in series [1] (setting [3]), the chromatographic logP turned out to be 2.74.
In the case of `CC(=O)NC(CCC(=O)c1c(F)cccc1F)c1ccc(Cl)cc1` (centres unmarked) [II-2, N-[1-(4-chlorophenyl)-4-(2,6-difluorophenyl)-4-oxobutyl]acetamide], the chromatographic logP in series [1] (setting [2]) and in series [1] (setting [3]) was 2.59 throughout.
`O=C(/C=C/c1ccc(Br)cc1)c1c(F)cccc1F` [VI-1, (2E)-3-(4-bromophenyl)-1-(2,6-difluorophenyl)-2-propen-1-one] gave a melting point of 71 °C. Besides, the chromatographic logP in series [1] (acidic range pH 2.3, chalcones of the formula (VI), read-out: logP*) turned out to be 3.98. Moreover, the chromatographic logP in series [1] (setting [3]) worked out at 3.98.
As to `CC(=O)NC(CCC(=O)c1c(F)cccc1F)c1ccc(Br)cc1` (centres unmarked) [II-1, N-[1-(4-bromophenyl)-4-(2,6-difluorophenyl)-4-oxobutyl]acetamide], the melting point lay in the range of 162 to 163 °C. In addition, the chromatographic logP in series [1] (setting [2]) was 2.67. Also, the chromatographic logP in series [1] (setting [3]) came out at 2.67.
